From the Deep4Chem optical property database

Assay: solvent given as SMILES

SMILES: c1ccc(-c2ccc3c(c2)c2cc(-c4ccccc4)ccc2n3-c2ccc3c(c2)c2cc(-n4c5ccc(-c6ccccc6)cc5c5cc(-c6ccccc6)ccc54)ccc2n3-c2ccc(-c3nc(-c4ccccc4)nc(-c4ccccc4)n3)cc2)cc1
- absorption maximum (in Cc1ccccc1): 362 nm

SMILES: Cc1ccc2c3ccc(C)cc3c3cc4c(C)cc(=O)oc4cc3c2c1
- absorption maximum (in ClC(Cl)Cl): 386 nm

SMILES: CN(C)c1cccc2c1-c1ccccc1C2=O
- absorption maximum (in C1CCCCC1): 412 nm
- absorption maximum (in CC#N): 439 nm
- absorption maximum (in CCO): 438 nm
- absorption maximum (in c1ccccc1): 433 nm

SMILES: CCOC(=O)c1ccccc1-c1c2ccc(=[N+](CC)CC)cc-2oc2c1c(=O)oc1cc(N(CC)CC)ccc12
- absorption maximum (in CCO): 595 nm
- absorption maximum (in ClC(Cl)Cl): 601 nm
- absorption maximum (in O): 596 nm

SMILES: CN(C)c1ccc(N2c3sc4ccccc4c3Sc3c2sc2ccccc32)cc1
- absorption maximum (in ClCCl): 430 nm

SMILES: COc1ccc2cc3c(C)cc(=O)oc3cc2c1
- absorption maximum (in CC#N): 340 nm
- absorption maximum (in CCCCCC): 337 nm
- absorption maximum (in CCO): 343 nm
- absorption maximum (in CCOC(C)=O): 340 nm
- absorption maximum (in CO): 343 nm
- absorption maximum (in OCC(F)(F)F): 344 nm

SMILES: CCCCn1c2ccc(/C=C(\C#N)c3ccc([N+](=O)[O-])cc3)cc2c2cc(Cn3c(-c4ccc5c(c4)c4ccccc4n5CCCC)nc4ccccc43)ccc21
- absorption maximum (in C1CCOC1): 410 nm
- absorption maximum (in CC#N): 416 nm
- absorption maximum (in CCO): 416 nm
- absorption maximum (in CCOC(C)=O): 408 nm
- absorption maximum (in CN(C)C=O): 423 nm
- absorption maximum (in ClCCl): 417 nm
- absorption maximum (in O): 434 nm
- absorption maximum (in c1ccccc1): 409 nm

SMILES: CCN(CC)c1ccc(/C=N/C2CCCCC2/N=C/c2ccc(N(CC)CC)cc2O)c(O)c1 (centres undefined)
- absorption maximum (in CC#N): 376 nm
- absorption maximum (in CN(C)C=O): 410 nm
- absorption maximum (in ClCCl): 403 nm

SMILES: Clc1ccc2cc3cccc[n+]3cc2c1
- absorption maximum (in O): 400 nm

SMILES: COc1ccccc1-c1nc2c3ccccc3c3ccccc3c2n1-c1ccc(C)cc1
- absorption maximum (in Cc1ccccc1): 359 nm

SMILES: Cc1c(C)c(-c2cccnc2)c(C)c(C)c1B(c1c(C)c(C)c(-c2cccnc2)c(C)c1C)c1c(C)c(C)c(-c2cccnc2)c(C)c1C
- absorption maximum (in ClCCl): 330 nm

SMILES: CCN(CC)c1cc(NC(C)=O)c(/N=N/c2cc3c(=O)[nH][nH]c(=O)c3cc2[N+](=O)[O-])cc1OC
- absorption maximum (in CC(=O)O): 556 nm
- absorption maximum (in CN(C)C=O): 550 nm
- absorption maximum (in CS(C)=O): 553 nm

SMILES: COC(=O)c1nc(Br)c(-c2ccccc2)o1
- absorption maximum (in C1CCCCC1): 307 nm

SMILES: N#Cc1ccc2c(c1)CCc1nc(-c3ccc([N+](=O)[O-])cc3)c3c(c1-2)CCc1cc(C#N)ccc1-3
- absorption maximum (in C1CCOC1): 331 nm
- absorption maximum (in CC#N): 349 nm
- absorption maximum (in CCCCCC): 350 nm
- absorption maximum (in CCOC(C)=O): 329 nm
- absorption maximum (in CO): 333 nm
- absorption maximum (in CS(C)=O): 360 nm
- absorption maximum (in Cc1ccccc1): 343 nm
- absorption maximum (in ClCCl): 345 nm

SMILES: N#Cc1nc2c3ccc(-c4ccc(N(c5ccccc5)c5ccccc5)cc4)cc3c3cc(-c4ccc(N(c5ccccc5)c5ccccc5)cc4)ccc3c2nc1C#N
- absorption maximum (in Cc1ccccc1): 460 nm

SMILES: CCOC(=O)/C(C#N)=C/c1cc2c3ccccc3n(C)c2cc1OC
- absorption maximum (in C1CCOC1): 407 nm
- absorption maximum (in CC#N): 410 nm
- absorption maximum (in CCOC(C)=O): 406 nm
- absorption maximum (in CN(C)C=O): 417 nm
- absorption maximum (in CO): 415 nm
- absorption maximum (in CS(C)=O): 419 nm
- absorption maximum (in Cc1ccccc1): 407 nm
- absorption maximum (in ClC(Cl)Cl): 415 nm
- absorption maximum (in ClCCl): 412 nm

SMILES: CC(C)[Si](C#Cc1c2nsnc2c(C#C[Si](C(C)C)(C(C)C)C(C)C)c2nc3c(ccc4cc5ccccc5cc43)nc12)(C(C)C)C(C)C
- absorption maximum (in CCCCCC): 579 nm

SMILES: CCCC[Si](C)(C)c1cccc2ccccc12
- absorption maximum (in C1CCCCC1): 294 nm

SMILES: Cc1nc2cccc(-c3nc4ccccc4[nH]3)c2c(=O)[nH]1
- absorption maximum (in CN(C)C=O): 313 nm

SMILES: O=C1Nc2ccccc2/C1=C/C(=O)c1ccc([N+](=O)[O-])cc1
- absorption maximum (in C1CCCCC1): 341 nm
- absorption maximum (in C1COCCO1): 343 nm
- absorption maximum (in CC#N): 341 nm
- absorption maximum (in CC(C)(C)O): 347 nm
- absorption maximum (in CC(C)O): 345 nm
- absorption maximum (in CCCCCC): 340 nm
- absorption maximum (in CCCCO): 346 nm
- absorption maximum (in CCOC(C)=O): 342 nm
- absorption maximum (in CN(C)C=O): 344 nm
- absorption maximum (in CO): 346 nm
- absorption maximum (in ClCCl): 344 nm

SMILES: CCOC(=O)c1cc(C(=O)O)nc2cc(OC)ccc12
- absorption maximum (in CCO): 349 nm

SMILES: CON(C)C(=O)c1ccc(/C=C/c2ccc(/C=C/c3ccc(C(=O)N(C)OC)cc3)cc2)cc1
- absorption maximum (in c1ccccc1): 368 nm

SMILES: c1ccc(-c2nc(-c3ccccc3)nc(-c3ccc(-n4c5ccccc5c5ccccc54)cc3)n2)cc1
- absorption maximum (in Cc1ccccc1): 364 nm

SMILES: COc1ccc2c(c1)sc1[n+]2[B-](F)(F)OC(c2ccc(N(C)C)cc2)=N1
- absorption maximum (in C1CCOC1): 430 nm
- absorption maximum (in CC#N): 426 nm
- absorption maximum (in CC(C)=O): 431 nm
- absorption maximum (in Cc1ccccc1): 427 nm
- absorption maximum (in ClCCl): 430 nm
